Source: patent US10064913B2, “Immunotherapy against several tumors including gastrointestinal and gastric cancer” (IMMATICS BIOTECHNOLOGIES GMBH, priority 2010, dated 2018)

Assays:
CD8+ T cells [1] = assay: In vitro immunogenicity of HLA-A*2402 restricted TUMAPs (aAPC priming of CD8+ T cells, multimer staining); format: cell-based, human; conditions: HLA-A*2402 peptides, CD8+ T cells of healthy HLA-A*24 donors, three stimulation cycles with pMHC/anti-CD28 beads; for Wells positive/evaluable [%]: at least 48 wells evaluable; for Donors positive/evaluable [%]: at least four donors evaluable
From the text: (§1) In order to perform in vitro stimulations by artificial antigen presenting cells (aAPC) loaded with peptide-MHC complex (pMHC) and anti-CD28 antibody, we first isolated CD8 T cells from fresh HLA-A*24 leukapheresis products or from HLA-A*2 buffy coats of healthy donors obtained from the Blood Bank Tuebingen.
(§2) CD8 T cells were either directly enriched or PBMCs (peripheral blood mononuclear cells) were isolated first by using standard gradient separation medium (PAA, Colbe, Germany). Isolated CD8 lymphocytes or PBMCs were incubated until use in T-cell medium (TCM) consisting of RPMI-Glutamax (Invitrogen, Karlsruhe, Germany) supplemented with 10% heat inactivated human AB serum (PAN-Biotech, Aidenbach, Germany), 100 U/ml Penicillin/100 μg/ml Streptomycin (Cambrex, Cologne, Germany), 1 mM sodium pyruvate (CC Pro, Oberdorla, Germany), 20 μg/ml Gentamycin (Cambrex). […] Isolation of CD8+ lymphocytes was performed by positive selection using CD8 MicroBeads (Miltenyi Biotec, Bergisch-Gladbach, Germany).
(§3) 800.000 beads/200 μl were coated in 96-well plates in the presence of 600 ng biotin-anti-CD28 plus 200 ng relevant biotin-pMHC (high density beads). […] Half of the medium was then exchanged by fresh TCM supplemented with 80 U/ml IL-2 and incubation was continued for 3-4 days at 37° C. This stimulation cycle was performed for a total of three times.
(§4) In vitro priming of specific multimer+CD8+ lymphocytes was detected by appropriate gating and by comparing to negative control stimulations.

CD8+ T cells [2] = assay: In vitro immunogenicity of HLA-A*0201 restricted TUMAPs (aAPC priming of CD8+ T cells, multimer staining); format: cell-based, human; conditions: HLA-A*0201 peptides, CD8+ T cells from HLA-A*2 buffy coats of healthy donors, three stimulation cycles
From the text: as §1, §2, §3, §4

[3] = peptide included in vaccines IMA901 and IMA910, described in other applications by immatics; cited from earlier work

Sequence: DYAYLREHF (listed as Homo sapiens) [ZNF598-001]
- Wells positive/evaluable [%] (CD8+ T cells [1]): 17%
- Donors positive/evaluable [%] (CD8+ T cells [1]): 83%

Sequence: SYLQAANAL (listed as Homo sapiens) [COL6A3-001]
- Wells positive/evaluable [%] (CD8+ T cells [1]): 0%
- Donors positive/evaluable [%] (CD8+ T cells [1]): 0%

Sequence: VYPNWAIGL (listed as Homo sapiens) [SLC6A6-001]
- Wells positive/evaluable [%] (CD8+ T cells [1]): 1%
- Donors positive/evaluable [%] (CD8+ T cells [1]): 17%

Sequence: LYPEVFEKF (listed as Homo sapiens) [ATAD2-003]
- Wells positive/evaluable [%] (CD8+ T cells [1]): 0%
- Donors positive/evaluable [%] (CD8+ T cells [1]): 0%

Sequence: NYLPFIMEL (listed as Homo sapiens) [UCHL5-001]
- Wells positive/evaluable [%] (CD8+ T cells [1]): 12%
- Donors positive/evaluable [%] (CD8+ T cells [1]): 75%

Sequence: SYLELVKSL (listed as Homo sapiens) [SDHC-001]
- Wells positive/evaluable [%] (CD8+ T cells [1]): 3%
- Donors positive/evaluable [%] (CD8+ T cells [1]): 33%

Sequence: KIQEILTQV (listed as Homo sapiens) [IGF2BP3-001]
- Donors positive/evaluable [%] (CD8+ T cells [2]): 50%
- Wells positive/evaluable [%] (CD8+ T cells [2]): 21%

Sequence: TYGNLLDYL (listed as Homo sapiens) [ABL1-001]
- Wells positive/evaluable [%] (CD8+ T cells [1]): 18%
- Donors positive/evaluable [%] (CD8+ T cells [1]): 83%

Sequence: VYTTMAEHF (listed as Homo sapiens) [TSPAN1-002]
- Wells positive/evaluable [%] (CD8+ T cells [1]): 1%
- Donors positive/evaluable [%] (CD8+ T cells [1]): 17%

Sequence: NYLLYVSNF (listed as Homo sapiens) [MST1R-001]
- Wells positive/evaluable [%] (CD8+ T cells [1]): 13%
- Donors positive/evaluable [%] (CD8+ T cells [1]): 50%

Sequence: VYKVVGNLL (listed as Homo sapiens) [IQGAP3-001]
- Wells positive/evaluable [%] (CD8+ T cells [1]): 24%
- Donors positive/evaluable [%] (CD8+ T cells [1]): 100%

Sequence: RYLWATVTI (listed as Homo sapiens) [ASPM-001]
- Wells positive/evaluable [%] (CD8+ T cells [1]): 3%
- Donors positive/evaluable [%] (CD8+ T cells [1]): 17%

Sequence: KIFDEILVNA (listed as Homo sapiens) [TOP-001]
- Donors positive/evaluable [%] (CD8+ T cells [2]): 40%
- Wells positive/evaluable [%] (CD8+ T cells [2]): 10%

Sequence: VYNPTPNSL (listed as Homo sapiens) [COL12A1-001]
- Wells positive/evaluable [%] (CD8+ T cells [1]): 0%
- Donors positive/evaluable [%] (CD8+ T cells [1]): 0%

Sequence: YVDPVITSI (listed as Homo sapiens) [MET-001]
- Donors positive/evaluable [%] (CD8+ T cells [2]): 67%
- Wells positive/evaluable [%] (CD8+ T cells [2]): 42%
- in vivo reactions [3]: extremely good in vivo reactions

Sequence: YYNAAGFNKL (listed as Homo sapiens) [UQCRB-001]
- Wells positive/evaluable [%] (CD8+ T cells [1]): 24%
- Donors positive/evaluable [%] (CD8+ T cells [1]): 83%

Sequence: VYIEKNDKL (listed as Homo sapiens) [ERBB3-001]
- Donors positive/evaluable [%] (CD8+ T cells [1]): 83%

Sequence: QYASRFVQL (listed as Homo sapiens) [PLK4-001]
- Wells positive/evaluable [%] (CD8+ T cells [1]): 5%
- Donors positive/evaluable [%] (CD8+ T cells [1]): 60%

Sequence: LYLENIDEF (listed as Homo sapiens) [POLD3-001]
- Wells positive/evaluable [%] (CD8+ T cells [1]): 7%
- Donors positive/evaluable [%] (CD8+ T cells [1]): 67%

Sequence: IYPDASLLI (listed as Homo sapiens) [CEA-010]
- Wells positive/evaluable [%] (CD8+ T cells [1]): 3%
- Donors positive/evaluable [%] (CD8+ T cells [1]): 40%

Sequence: SYATLLHVL (listed as Homo sapiens) [GPR39-001]
- Wells positive/evaluable [%] (CD8+ T cells [1]): 6%
- Donors positive/evaluable [%] (CD8+ T cells [1]): 50%

Sequence: YYYVGFAYL (listed as Homo sapiens) [EIF3L-001]
- Wells positive/evaluable [%] (CD8+ T cells [1]): 29%
- Donors positive/evaluable [%] (CD8+ T cells [1]): 100%

Sequence: FYISPVNKL (listed as Homo sapiens) [AVL9-001]
- Wells positive/evaluable [%] (CD8+ T cells [1]): 31%
- Donors positive/evaluable [%] (CD8+ T cells [1]): 100%

Sequence: IYLEVIHNL (listed as Homo sapiens) [DNAJC10-001]
- Wells positive/evaluable [%] (CD8+ T cells [1]): 15%
- Donors positive/evaluable [%] (CD8+ T cells [1]): 50%

Sequence: VFIFKGNQF (listed as Homo sapiens) [MMP3-001]
- Wells positive/evaluable [%] (CD8+ T cells [1]): 1%
- Donors positive/evaluable [%] (CD8+ T cells [1]): 11%

Sequence: VYLLNSTTL (listed as Homo sapiens) [CLCN3-001]
- Wells positive/evaluable [%] (CD8+ T cells [1]): 6%
- Donors positive/evaluable [%] (CD8+ T cells [1]): 33%

Sequence: IYAPKLQEF (listed as Homo sapiens) [CCNE2-001]
- Wells positive/evaluable [%] (CD8+ T cells [1]): 0%
- Donors positive/evaluable [%] (CD8+ T cells [1]): 0%

Sequence: YYKNIGLGF (listed as Homo sapiens) [RPS11-001]
- Wells positive/evaluable [%] (CD8+ T cells [1]): 3%
- Donors positive/evaluable [%] (CD8+ T cells [1]): 17%
